US20170042908A1, “METHOD FOR TREATING GEOGRAPHIC ATROPHY ASSOCIATED WITH AGE-RELATED MACULAR DEGENERATION” (NATIONAL UNIVERSITY CORPORATION KAGAWA UNIVERSITY, priority 2014, published 2017)

How the values were obtained:
geographic atrophy (GA) = assay: Clinical study: GA area by fundus autofluorescence imaging (RegionFinder); format: in vivo, human
Experimental: (§1) A prospective, randomized, placebo-controlled study was performed for forty-eight eyes with GA which had not a recurrence of exudative AND for at least 6 months after receiving the treatment for exudative AND. The eyes of the treatment group received two drops of 0.15% isopropyl unoprostone (IU) three times a day for 54 weeks. Participants were examined before starting the study (baseline) and at 4, 8, 12, 24, 36, and 54 weeks to measure GA area, the change in GA, the GA enlargement rate and the logarithm of the minimum angle of resolution (logMAR) visual acuity. The placebo group eyes received the vehicle 3 times a day.
(§2) Two drops of the test drug or the placebo (vehicle) were administered at 5 minute intervals to the eyes three times a day, i.e. morning, afternoon, and night.
(§3) Study duration: 54 weeks.
(§4) The participants were examined to measure the following items at enrollment (baseline) and at 4, 8, 12, 24, 36 and 54 weeks.
Fundus autofluorescence images were obtained using BluePeak™ blue laser fundus autofluorescence (FAF) and confocal scanning laser ophthalmoscopy reflectance (OSLO). Hypofluorescent areas that reflect decreased autofluorescence were defined as GA areas. In detail, digital images obtained as above were calibrated and analyzed using RegionFinder™ software (version 2.4, Heidelberg Engineering, Germany) to define and quantify GA areas. Obtaining the fundus autofluorescence images, analyzing the obtained images and defining GA areas were performed according to the manuals of the equipment and software.
At each measurement time, the GA size, the change in GA area from the baseline and the GA enlargement rate from the baseline were determined.

[1] = Clinical study: logMAR visual acuity; format: in vivo, human; conditions: U group
Experimental: as §1, §2, §3, §4
Visual acuity was examined and the obtained value was converted the logarithm of the minimum angle of resolution (LogMar) to give logMar visual acuity.

CCCCCCCC(=O)CC[C@@H]1[C@@H](C/C=C\CCCC(=O)OC(C)C)[C@@H](O)C[C@H]1O [isopropyl unoprostone, 13,14-dihydro-15-keto-20-ethyl F2α isopropyl ester]
mean change in GA area at week 54 (geographic atrophy (GA); U group (24 eyes), 0.15% eye drops two drops three times a day, 54 weeks, change from baseline (baseline 2.71±2.03 mm^2), p<0.001 vs placebo): 0.44±0.39 mm^2
enlargement of GA (conclusion) (geographic atrophy (GA); eye drops, 54 weeks, vs placebo): could suppress the enlargement of GA
change in geographic atrophy (GA) area (conclusion) (geographic atrophy (GA); patients who developed GA after treatment for exudative AMD, eye drops): statistically significant suppression
GA enlargement rate at 54 week (geographic atrophy (GA); representative U group case, person with typical AMD, left eye, 0.15% eye drops, two drops three times a day, vs baseline): 118%
GA area, difference between U and P groups (geographic atrophy (GA); throughout the study): no statistically significant difference
logMAR visual acuity, trend over time ([1]; over the study, no statistically significant difference over the baseline): tended to improve over time
logMAR visual acuity at week 4 ([1]; week 4, baseline 0.39±0.39, p=0.62 vs P group): 0.33±0.34
logMAR visual acuity at week 54 ([1]; week 54, baseline 0.39±0.39, p=0.27 vs P group): 0.37±0.34
